Experimental data taken from ChEMBL document CHEMBL1201862, “PubChem BioAssay data set” (2004).
The source made the active and inactive calls.

Experiments:
Estrogen receptor beta [1] = target: T1, Estrogen receptor beta (Homo sapiens, UniProt Q92731);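 further: recombinant ER-beta bound to coactivator SRC1 peptide in presence of estradiol agonist; inhibitors block coactivator peptide binding and lower the FRET signal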
Estrogen receptor = target: T2, Estrogen receptor (Homo sapiens, UniProt P03372);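 further: potency for inhibiting coactivator peptide recruitment to the receptor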
T2 sequence (P03372 whole entry): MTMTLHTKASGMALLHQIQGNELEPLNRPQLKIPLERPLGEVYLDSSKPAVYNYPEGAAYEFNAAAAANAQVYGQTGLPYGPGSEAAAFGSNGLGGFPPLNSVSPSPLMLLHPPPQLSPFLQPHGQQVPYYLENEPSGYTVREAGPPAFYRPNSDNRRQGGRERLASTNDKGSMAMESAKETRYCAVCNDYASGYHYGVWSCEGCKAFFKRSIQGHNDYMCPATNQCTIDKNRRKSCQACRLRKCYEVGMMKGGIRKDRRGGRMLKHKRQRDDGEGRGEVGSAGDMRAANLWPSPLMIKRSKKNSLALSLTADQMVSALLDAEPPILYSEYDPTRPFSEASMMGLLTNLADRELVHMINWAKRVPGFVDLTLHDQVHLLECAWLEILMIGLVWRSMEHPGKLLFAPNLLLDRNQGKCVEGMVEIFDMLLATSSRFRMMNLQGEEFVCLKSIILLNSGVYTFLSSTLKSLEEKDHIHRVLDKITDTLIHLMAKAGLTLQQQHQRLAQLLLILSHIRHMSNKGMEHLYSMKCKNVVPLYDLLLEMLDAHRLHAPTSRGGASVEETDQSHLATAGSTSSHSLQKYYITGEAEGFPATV

Estrogen receptor beta [2] = target: T1, Estrogen receptor beta; experiment: ERβ–SRC-3 coactivator interaction inhibitors, confirmation, orthogonal assay, biochemical, ELISA, streptavidin-HRP readout (AID 1060)
[3] = target: Protein-tyrosine kinase 2-beta (Homo sapiens, UniProt Q14289);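 further: potency of inhibitors of PYK2 kinase phosphorylation of poly-GT substrate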
[4] = target: T3, Calpain-2 catalytic subunit (Sus scrofa, UniProt P43367); experiment: pig calpain II inhibitor potency, dose response, biochemical, fluorogenic peptide substrate (AID 1420); format: functional
T3 sequence (P43367 whole entry): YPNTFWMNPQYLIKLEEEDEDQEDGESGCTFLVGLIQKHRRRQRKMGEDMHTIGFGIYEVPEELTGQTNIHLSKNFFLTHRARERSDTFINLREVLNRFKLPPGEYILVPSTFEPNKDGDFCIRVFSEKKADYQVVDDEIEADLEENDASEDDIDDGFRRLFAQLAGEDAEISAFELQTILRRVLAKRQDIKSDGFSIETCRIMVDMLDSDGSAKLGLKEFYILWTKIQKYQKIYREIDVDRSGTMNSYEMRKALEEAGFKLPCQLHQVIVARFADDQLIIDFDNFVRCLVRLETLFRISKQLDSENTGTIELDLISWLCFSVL

[5] = target: Voltage-gated inwardly rectifying potassium channel KCNH2 (Homo sapiens, UniProt Q12809); experiment: hERG protection from proarrhythmic block, potency, dose response, cell-based, thallium flux (AID 2121); format: ADME
HT-1080 = experiment: cytotoxicity in HT1080 fibrosarcoma cells, cell-based, fluorescence readout (AID 620); format: functional; settings: Homo sapiens
[6] = Late stage counterscreen results from the probe development effort to identify activators of signal transducer and activator of transcription 1 (STAT1): luminescence-based cell-based dose response assay to identify cytotoxic compounds.; format: functional
[7] = target: Luciferin 4-monooxygenase (Photinus pyralis, UniProt P08659); experiment: Counter Screen for Luciferase-based Assay Positives. [Related pubchem assays: 620, 618, 411 ]
[8] = target: T4, Rac GTPase-activating protein 1 (Homo sapiens, UniProt Q9H0H5); experiment: MgcRacGAP GTPase-activating activity inhibitors, confirmation, biochemical, ADP Hunter fluorescence, primary and confirmatory (AID 624330); format: functional
T4 sequence (Q9H0H5 whole entry): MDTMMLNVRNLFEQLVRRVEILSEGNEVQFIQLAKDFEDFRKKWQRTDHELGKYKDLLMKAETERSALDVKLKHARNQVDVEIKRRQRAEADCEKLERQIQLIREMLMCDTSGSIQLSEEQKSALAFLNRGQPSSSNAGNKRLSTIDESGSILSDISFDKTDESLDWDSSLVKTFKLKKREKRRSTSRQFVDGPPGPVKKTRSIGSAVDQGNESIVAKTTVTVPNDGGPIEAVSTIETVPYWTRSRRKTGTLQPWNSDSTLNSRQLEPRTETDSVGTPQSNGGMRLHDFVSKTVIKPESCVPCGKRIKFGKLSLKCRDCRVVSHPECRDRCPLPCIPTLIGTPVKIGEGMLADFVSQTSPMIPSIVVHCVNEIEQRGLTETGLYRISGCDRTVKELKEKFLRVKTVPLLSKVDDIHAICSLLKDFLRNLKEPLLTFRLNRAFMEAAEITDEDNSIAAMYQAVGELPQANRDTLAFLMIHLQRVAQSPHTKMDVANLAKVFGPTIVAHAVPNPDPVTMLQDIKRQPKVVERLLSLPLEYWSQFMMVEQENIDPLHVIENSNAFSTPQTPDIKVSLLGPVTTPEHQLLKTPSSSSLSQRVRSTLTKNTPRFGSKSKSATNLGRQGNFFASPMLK

Troponin, cardiac muscle = Troponin, cardiac muscle (Homo sapiens, UniProt P19429+P45379+P63316); experiment: Fluorescence-based biochemical high throughput dose response assay for activators of the calcium sensitivity of cardiac Regulated Thin Filaments (RTF). [Related pubchem assays (depositor defined):AID493008, AID493018, AID504382, AID504383]; format: protein-complex assay
[9] = target: Transitional endoplasmic reticulum ATPase (Homo sapiens, UniProt P55072, C522A); experiment: Luminescence counterscreen assay for p97 inhibitors: dose response biochemical high throughput screening assay to identify inhibitors of the C522A mutant p97 ATPase: synthesized compounds. [Related pubchem assays: 1481, 1517, 1551 ]
[10] = target: Transitional endoplasmic reticulum ATPase (Homo sapiens, UniProt P55072); experiment: Luminescence dose response biochemical high throughput screening assay for inhibitors of the p97 ATPase: synthesized compounds. [Related pubchem assays: 1481, 1517 ]
[11] = M. tuberculosis H37Rv growth inhibitors, H37Rv strain (AID 1626); format: functional
14-3-3 protein gamma = 14-3-3 protein gamma (Homo sapiens, UniProt P61981); experiment: modulators of 14-3-3 gamma client binding – dose response (AID 711); format: functional
[12] = target: T5, Short transient receptor potential channel 4 (Mus musculus, UniProt Q9QUQ5); experiment: mouse TRPC4 channel inhibitors, dose response, cell-based, HEK293 TRPC4/mu-opioid, Fluo-4 calcium (AID 434942); format: functional;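 further: potency of inhibitors blocking the TRPC4 calcium response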
T5 sequence (Q9QUQ5 whole entry): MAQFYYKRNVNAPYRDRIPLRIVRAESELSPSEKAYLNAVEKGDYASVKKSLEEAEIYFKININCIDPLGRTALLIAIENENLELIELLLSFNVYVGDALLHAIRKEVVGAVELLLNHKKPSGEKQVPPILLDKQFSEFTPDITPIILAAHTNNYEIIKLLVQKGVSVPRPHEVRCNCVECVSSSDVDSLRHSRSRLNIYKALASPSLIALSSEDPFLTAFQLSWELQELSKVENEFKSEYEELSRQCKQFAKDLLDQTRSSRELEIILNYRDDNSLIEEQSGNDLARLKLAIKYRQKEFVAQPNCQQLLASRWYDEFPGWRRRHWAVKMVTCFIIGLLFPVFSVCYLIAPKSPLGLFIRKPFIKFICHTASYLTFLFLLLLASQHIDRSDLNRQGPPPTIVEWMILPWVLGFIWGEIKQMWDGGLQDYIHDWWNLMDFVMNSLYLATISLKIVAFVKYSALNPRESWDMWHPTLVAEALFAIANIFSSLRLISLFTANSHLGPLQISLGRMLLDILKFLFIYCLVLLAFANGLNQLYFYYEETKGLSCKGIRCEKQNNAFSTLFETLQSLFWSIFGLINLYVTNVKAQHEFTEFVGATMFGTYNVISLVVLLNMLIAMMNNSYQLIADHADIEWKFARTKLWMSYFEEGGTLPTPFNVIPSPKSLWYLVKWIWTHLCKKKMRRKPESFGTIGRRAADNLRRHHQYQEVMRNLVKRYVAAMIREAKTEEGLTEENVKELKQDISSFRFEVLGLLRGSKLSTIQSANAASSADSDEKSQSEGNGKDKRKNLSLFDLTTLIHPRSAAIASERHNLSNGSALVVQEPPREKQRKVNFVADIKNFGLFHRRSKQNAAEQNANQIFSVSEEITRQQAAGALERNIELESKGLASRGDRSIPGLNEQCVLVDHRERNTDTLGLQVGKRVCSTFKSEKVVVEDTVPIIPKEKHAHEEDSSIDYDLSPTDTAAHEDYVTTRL

[13] = target: Aryl hydrocarbon receptor (Homo sapiens, UniProt P35869); experiment: Luminescence-based cell-based high throughput dose response assay for activators of the Aryl Hydrocarbon Receptor (AHR). [Related pubchem assays: 2796 (Primary screen (AHR activators in singlicate)), 2845 (Confirmation screen (AHR activators in triplicate)), 434939 (Counterscreen (PXR activators in triplicate)), 2804 (Summary (AHR activators))]; format: ADME
SUMO-activating enzyme [14] = target: T6, SUMO-activating enzyme (Homo sapiens, UniProt Q9UBT2); experiment: inhibitors of in vitro SUMOylation cascade, primary screen, biochemical, HTRF, uHTS (AID 2006); format: protein-complex assay
SUMO-activating enzyme [15] = target: T6, SUMO-activating enzyme; experiment: SUMOylation inhibitor hit validation, confirmation, SUMOylation inhibitor project, biochemical, AlphaScreen (AID 2018); format: functional
[16] = target: 5-hydroxytryptamine receptor 1A (Homo sapiens, UniProt P08908); format: functional
[17] = control 3'UTR Renilla luciferase suppression, dose response, counter-screen for Shn3 inhibitor project, cell-based, Clone20-Shn3RL, cherry-picked (AID 624133); format: functional
[18] = target: T7, Probable nicotinate-nucleotide adenylyltransferase (Staphylococcus aureus (strain N315), UniProt P65502); format: functional, Staphylococcus aureus subsp. aureus N315;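 on IC50 Mean: confirmatory dose-response retesting of NadD inhibitor hits first found in an ultra-high-throughput screen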
[19] = cytotoxicity toward NIH3T3 fibroblasts, dose response, counter-screen, cell-based, ATP luminescence, mouse fibroblasts (AID 2010); format: functional;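 further: cells exposed to compound for about 90 hours before reading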
[20] = inhibitors of intracellular T. cruzi replication, confirmation, NIH3T3 host cells, beta-gal luminescence (AID 2044); format: functional, cell-based;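 further: intracellular parasites grown in NIH/3T3 mouse fibroblasts as host cells; luminescent beta-galactosidase reporter signal from transgenic T. cruzi replicating inside host cells; inhibitors lower the luminescence signal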
[21] = inhibitors of Vif binding to APOBEC3G peptide, primary screen, biochemical, TR-FRET, GST-Vif 1-94, biotin-A3G peptide, dose response retest (AID 1117319); format: functional;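 further: TR-FRET signal of purified GST-Vif binding a biotinylated A3G peptide; inhibitors lower the FRET signal by blocking Vif and A3G binding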
INS1 = experiment: beta cell apoptosis inhibitors, cytokine rescue, dose response, luminescence, retest (AID 449756); format: functional, cell-based; settings: Rattus norvegicus;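 further: cell death triggered by IL-1 beta plus TNF-alpha plus IFN-gamma mixture; protective hits raise ATP signal compared with cytokine alone wells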
[22] = HepG2 cell cytotoxicity, dose response, cytotoxicity control for Shn3 inhibitor project, CellTiter-Glo, cherry-picked (AID 624134); format: functional, cell-based
Streptococcus = experiment: Group A Streptococcus viability loss, dose response, counter-screen for streptokinase expression inhibitor project, luminescence, BacTiterGlo (AID 1915); format: functional, organism-based;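 further: potency for reduction of bacterial viability or growth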
[23] = THP-1 cell cytotoxicity, dose response, cytotoxicity control for Vif-APOBEC3G degradation inhibitor project, THP-1 cells (AID 1117359); format: functional; settings: Human immunodeficiency virus 1, THP-1
[24] = target: T7, Probable nicotinate-nucleotide adenylyltransferase; format: functional, Staphylococcus aureus subsp. aureus N315; settings: read-out: IC50_Mean
[25] = test system: Streptococcus sp. 'group A'; experiment: growth inhibition of control SK(-) GAS strain, dose response, counter-screen for streptokinase expression inhibitor project, luminescence, kanamycin, BacTiterGlo, confirmation (AID 1900); format: functional, organism-based
[26] = Shn3 3'UTR reporter inhibitors, dose response, cell-based, Clone20 osteoblasts, firefly luciferase, cherry-picked (AID 624132); format: functional;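 further: firefly luciferase luminescence from reporter carrying the Shn3 3'UTR in osteoblasts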
Galanin receptor type 2 = Galanin receptor type 2 (Homo sapiens, UniProt O43603); experiment: Dose Response cell-based high-throughput screening assay to identify agonists of galanin receptor 2 (GALR2). [Related pubchem assays: 864 ]; format: functional
Galanin receptor type 2, sequence (O43603 whole entry): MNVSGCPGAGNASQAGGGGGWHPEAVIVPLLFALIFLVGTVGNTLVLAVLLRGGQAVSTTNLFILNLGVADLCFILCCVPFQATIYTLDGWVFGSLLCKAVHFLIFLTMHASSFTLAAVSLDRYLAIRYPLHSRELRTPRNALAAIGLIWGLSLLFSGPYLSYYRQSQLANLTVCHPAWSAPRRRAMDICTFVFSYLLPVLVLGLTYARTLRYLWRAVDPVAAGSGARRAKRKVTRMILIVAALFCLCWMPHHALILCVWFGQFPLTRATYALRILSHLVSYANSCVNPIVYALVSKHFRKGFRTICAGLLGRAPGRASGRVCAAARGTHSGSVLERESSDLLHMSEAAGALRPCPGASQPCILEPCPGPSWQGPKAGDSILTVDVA

T6 sequence (Q9UBE0 whole entry): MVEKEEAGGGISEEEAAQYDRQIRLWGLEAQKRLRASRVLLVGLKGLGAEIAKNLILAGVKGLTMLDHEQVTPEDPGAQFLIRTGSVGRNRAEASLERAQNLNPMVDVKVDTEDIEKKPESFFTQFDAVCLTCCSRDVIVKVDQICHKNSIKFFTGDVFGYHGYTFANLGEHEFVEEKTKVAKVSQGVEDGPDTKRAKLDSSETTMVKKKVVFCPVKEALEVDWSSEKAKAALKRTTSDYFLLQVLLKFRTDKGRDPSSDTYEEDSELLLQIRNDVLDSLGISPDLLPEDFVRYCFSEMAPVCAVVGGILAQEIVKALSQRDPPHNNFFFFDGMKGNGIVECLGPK
T6 sequence (Q9UBT2 whole entry): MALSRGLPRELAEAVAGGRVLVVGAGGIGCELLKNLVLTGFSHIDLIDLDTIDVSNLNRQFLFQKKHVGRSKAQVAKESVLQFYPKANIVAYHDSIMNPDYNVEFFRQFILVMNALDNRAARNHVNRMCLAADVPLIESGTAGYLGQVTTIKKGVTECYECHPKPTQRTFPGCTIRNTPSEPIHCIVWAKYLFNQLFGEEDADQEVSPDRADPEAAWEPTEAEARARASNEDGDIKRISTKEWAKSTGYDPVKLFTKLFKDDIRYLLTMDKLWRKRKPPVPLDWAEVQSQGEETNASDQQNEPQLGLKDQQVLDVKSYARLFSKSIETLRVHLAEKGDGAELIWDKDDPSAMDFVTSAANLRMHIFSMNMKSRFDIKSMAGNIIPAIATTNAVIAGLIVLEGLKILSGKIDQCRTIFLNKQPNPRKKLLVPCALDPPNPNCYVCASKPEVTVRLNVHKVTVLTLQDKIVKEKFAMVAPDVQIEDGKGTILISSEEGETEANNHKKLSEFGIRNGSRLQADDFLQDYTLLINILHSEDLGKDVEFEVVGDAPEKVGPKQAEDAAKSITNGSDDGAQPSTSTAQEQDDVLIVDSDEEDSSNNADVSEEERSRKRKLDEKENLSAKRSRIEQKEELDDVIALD
T1 sequence (Q92731 whole entry): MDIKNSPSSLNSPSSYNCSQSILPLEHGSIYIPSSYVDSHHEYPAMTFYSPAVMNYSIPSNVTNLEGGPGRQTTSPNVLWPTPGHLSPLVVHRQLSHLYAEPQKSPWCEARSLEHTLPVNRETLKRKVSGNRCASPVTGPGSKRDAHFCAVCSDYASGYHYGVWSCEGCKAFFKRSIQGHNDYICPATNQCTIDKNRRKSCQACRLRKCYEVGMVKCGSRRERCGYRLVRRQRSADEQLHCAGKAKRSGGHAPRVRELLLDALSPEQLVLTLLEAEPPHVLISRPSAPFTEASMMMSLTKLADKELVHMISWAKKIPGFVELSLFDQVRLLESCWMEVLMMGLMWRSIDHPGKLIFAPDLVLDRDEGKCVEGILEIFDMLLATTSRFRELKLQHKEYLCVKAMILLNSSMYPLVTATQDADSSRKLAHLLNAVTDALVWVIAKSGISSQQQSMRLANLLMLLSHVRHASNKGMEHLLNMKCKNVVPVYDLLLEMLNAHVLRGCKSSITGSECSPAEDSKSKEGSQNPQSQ
T7 sequence (P65502 whole entry): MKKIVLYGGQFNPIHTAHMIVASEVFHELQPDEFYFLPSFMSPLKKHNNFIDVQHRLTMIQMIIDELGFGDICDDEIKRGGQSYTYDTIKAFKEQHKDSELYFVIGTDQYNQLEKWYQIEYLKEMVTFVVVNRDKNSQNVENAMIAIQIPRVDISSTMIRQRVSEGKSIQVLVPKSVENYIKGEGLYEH
Transitional endoplasmic reticulum ATPase (Homo sapiens, UniProt P55072), sequence (P55072 whole entry): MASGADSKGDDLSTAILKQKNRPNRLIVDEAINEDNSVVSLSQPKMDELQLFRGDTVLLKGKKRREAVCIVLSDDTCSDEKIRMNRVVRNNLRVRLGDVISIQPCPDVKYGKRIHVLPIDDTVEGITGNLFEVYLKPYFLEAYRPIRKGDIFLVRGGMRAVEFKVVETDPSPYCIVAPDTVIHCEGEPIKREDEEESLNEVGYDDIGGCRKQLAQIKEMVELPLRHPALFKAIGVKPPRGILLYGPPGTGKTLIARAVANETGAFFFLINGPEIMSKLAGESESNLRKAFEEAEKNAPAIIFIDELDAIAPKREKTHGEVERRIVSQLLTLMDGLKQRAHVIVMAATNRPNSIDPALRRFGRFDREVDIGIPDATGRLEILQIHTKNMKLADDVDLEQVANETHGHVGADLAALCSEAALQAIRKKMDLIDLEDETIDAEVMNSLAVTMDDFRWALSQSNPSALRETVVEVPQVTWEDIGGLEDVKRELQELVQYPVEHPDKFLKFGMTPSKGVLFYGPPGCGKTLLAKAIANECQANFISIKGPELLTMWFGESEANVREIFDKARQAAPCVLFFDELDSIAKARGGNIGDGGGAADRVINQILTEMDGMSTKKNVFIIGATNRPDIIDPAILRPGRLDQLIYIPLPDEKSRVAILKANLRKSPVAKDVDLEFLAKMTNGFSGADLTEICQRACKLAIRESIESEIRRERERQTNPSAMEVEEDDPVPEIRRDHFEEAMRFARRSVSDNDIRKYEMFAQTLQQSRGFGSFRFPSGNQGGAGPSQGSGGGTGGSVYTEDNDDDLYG
5-hydroxytryptamine receptor 1A, sequence (P08908 whole entry): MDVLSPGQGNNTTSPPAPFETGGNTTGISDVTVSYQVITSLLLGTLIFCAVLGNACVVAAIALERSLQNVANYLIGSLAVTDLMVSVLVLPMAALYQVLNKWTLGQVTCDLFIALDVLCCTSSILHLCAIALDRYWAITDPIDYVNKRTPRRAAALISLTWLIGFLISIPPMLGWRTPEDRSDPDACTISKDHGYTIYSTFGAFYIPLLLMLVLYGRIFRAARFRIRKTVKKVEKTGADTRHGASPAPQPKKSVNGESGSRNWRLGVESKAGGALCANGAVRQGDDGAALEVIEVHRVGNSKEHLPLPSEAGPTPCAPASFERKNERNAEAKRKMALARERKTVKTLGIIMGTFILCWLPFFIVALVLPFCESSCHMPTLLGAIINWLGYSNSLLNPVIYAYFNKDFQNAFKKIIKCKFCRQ
Protein-tyrosine kinase 2-beta, sequence (Q14289 whole entry): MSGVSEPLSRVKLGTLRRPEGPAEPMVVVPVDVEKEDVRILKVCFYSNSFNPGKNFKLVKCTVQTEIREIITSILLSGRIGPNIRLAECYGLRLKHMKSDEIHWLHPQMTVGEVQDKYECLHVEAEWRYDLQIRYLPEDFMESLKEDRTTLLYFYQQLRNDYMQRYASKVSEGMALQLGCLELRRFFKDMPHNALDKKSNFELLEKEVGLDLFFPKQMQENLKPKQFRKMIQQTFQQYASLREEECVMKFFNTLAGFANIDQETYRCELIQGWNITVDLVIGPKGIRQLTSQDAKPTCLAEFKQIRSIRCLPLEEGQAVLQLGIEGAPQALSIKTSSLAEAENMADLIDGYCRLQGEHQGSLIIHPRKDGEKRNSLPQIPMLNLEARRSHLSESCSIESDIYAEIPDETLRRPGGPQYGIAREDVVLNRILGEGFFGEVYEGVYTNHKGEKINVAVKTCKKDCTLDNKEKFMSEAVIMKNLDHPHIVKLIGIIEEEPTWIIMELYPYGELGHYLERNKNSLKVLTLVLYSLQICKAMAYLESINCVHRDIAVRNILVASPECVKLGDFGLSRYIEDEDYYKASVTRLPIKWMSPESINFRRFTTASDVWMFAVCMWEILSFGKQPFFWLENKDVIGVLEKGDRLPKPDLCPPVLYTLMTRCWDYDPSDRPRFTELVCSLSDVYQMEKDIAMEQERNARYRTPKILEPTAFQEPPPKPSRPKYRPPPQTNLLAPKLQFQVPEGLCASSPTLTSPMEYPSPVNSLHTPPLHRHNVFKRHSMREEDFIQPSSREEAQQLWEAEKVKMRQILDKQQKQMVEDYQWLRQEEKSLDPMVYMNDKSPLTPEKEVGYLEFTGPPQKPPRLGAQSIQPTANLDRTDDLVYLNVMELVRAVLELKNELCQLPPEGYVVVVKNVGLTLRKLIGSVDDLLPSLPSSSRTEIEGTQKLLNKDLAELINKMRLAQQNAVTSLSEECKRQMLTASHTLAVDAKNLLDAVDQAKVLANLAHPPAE
Luciferin 4-monooxygenase, sequence (P08659 whole entry): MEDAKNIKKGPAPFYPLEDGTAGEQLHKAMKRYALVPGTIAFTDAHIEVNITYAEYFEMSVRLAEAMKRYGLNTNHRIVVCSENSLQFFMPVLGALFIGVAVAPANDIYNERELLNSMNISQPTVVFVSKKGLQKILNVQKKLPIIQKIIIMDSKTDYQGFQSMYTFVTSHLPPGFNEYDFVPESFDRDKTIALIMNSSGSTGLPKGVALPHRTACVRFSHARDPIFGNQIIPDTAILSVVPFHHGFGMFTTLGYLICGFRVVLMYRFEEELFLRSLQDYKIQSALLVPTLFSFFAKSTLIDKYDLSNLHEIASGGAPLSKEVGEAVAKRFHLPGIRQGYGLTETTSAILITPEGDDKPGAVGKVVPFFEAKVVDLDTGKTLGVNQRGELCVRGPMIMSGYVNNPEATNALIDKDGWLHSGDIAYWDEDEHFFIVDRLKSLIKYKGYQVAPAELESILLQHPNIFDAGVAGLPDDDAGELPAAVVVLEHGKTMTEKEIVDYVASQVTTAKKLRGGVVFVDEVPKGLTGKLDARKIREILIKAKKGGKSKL

CC(=O)c1ccc(NCC(=O)N2CCN(c3ccccc3)CC2)cc1
IC50 (Estrogen receptor beta [1]): 2.64 µM (active) | IC50 (Estrogen receptor): 5.02 µM (active) | IC50 (Estrogen receptor beta [2]): 37.1 µM (not active) | IC50 [3]: > 69.5 µM (not active)

S=c1[nH]nc(CSc2nc3ccccc3s2)n1C1CCCCC1
IC50 [4]: 14.3 µM (not active) | EC50 [5]: 9.55 µM (active)

N#C/C(=C\c1ccc(N2CCOCC2)o1)c1nc2ccccc2[nH]1
EC50 (HT-1080): > 50 µM (not active) | IC50 [6]: > 55.7 µM (not active) | EC50 [7]: > 100 µM (not active) | IC50 [8]: 12.2 µM (active) | EC50 (Troponin, cardiac muscle): 0.5 µM (active)

N#Cc1ccc(Nc2nc(-c3cccc(Br)c3)cs2)cc1
IC50 [9]: > 50 µM (not active) | IC50 [10]: > 50 µM (not active)

Cn1cc(CN2CCN(c3ccc(Cl)cn3)CC2)c(-c2ccccc2F)n1
IC50 [11]: > 100 µM (active)

COc1ccc(Nc2cc(C)nc3ccccc23)cc1
IC50 (14-3-3 protein gamma): > 50 µM (not active) | EC50 [12]: 2.99 µM (active)

O=c1[nH]/c(=N\c2ccc(Br)cc2)sc2ccc([N+](=O)[O-])cc12
EC50 [13]: 5.11 µM (active) | IC50 (SUMO-activating enzyme [14]): 15.9 µM (active) | IC50 (SUMO-activating enzyme [15]): 34.6 µM (active)

C1=C(c2c[nH]c3ccccc23)CCNC1
EC50 [16]: > 50 µM (not active)

Cc1cccc2sc(NNC(=O)c3ccc(S(=O)(=O)N4CC(C)CC(C)C4)cc3)nc12 (stereo not drawn)
AC50 [17]: 5.72 µM (active) | IC50 [18]: 8.16 µM (active) | EC50 [19]: 7.47 µM (active) | EC50 [20]: 1.22 µM (active) | IC50 [21]: > 100 µM (active) | AC50 (INS1): 1.73 µM (active) | AC50 [22]: 5.61 µM (active) | EC50 (Streptococcus): 4.98 µM (active) | CC50 [23]: 2.27 µM (active) | IC50 [24]: 42.1 µM (active) | EC50 [25]: 1.18 µM (active) | AC50 [26]: 2.57 µM (active) | EC50 (Galanin receptor type 2): > 55.7 µM (not active)
